Key:
Assay in all cases: Preemergent control of plant species
[1] = tested on: annual morning glory; type: in vivo, Ipomoea spp.; details: Ipomoea, pre-emergence, 336 h; 0.25 lb/acre; read-out: percent preemergent control
Method: (§1) The seeds of various species of plants were planted in beds of good agricultural soil in a greenhouse. A number of compositions of the present invention, generally in the nature of an aqueous emulsion, were applied at rates listed in the table so as to deposit a predetermined amount of active ingredients uniformly throughout the surface of the bed. Another seed bed was treated only with water to serve as a control. After treatment the seed beds were maintained for two weeks under greenhouse conditions conducive for good plant growth and watered as necessary. Control refers to the reduction in growth compared to the observed results of the same untreated species.

[2] = tested on: yellow foxtail; type: in vivo, Setaria lutescens; details: Setaria, pre-emergence, 336 h; 0.25 lb/acre; read-out: percent preemergent control
Method: as §1

[3] = tested on: soybean; type: in vivo, Glycine max.; details: Glycine max, pre-emergence, 336 h; 0.25 lb/acre; read-out: percent preemergent control
Method: as §1

[4] = tested on: jimsonweed; type: in vivo, Datura stramonium; details: Datura stramonium, pre-emergence, 336 h; 0.25 lb/acre; read-out: percent preemergent control
Method: as §1

[5] = tested on: sugar beet; type: in vivo, Beta saccharifera; details: Beta vulgaris, pre-emergence, 336 h; 0.25 lb/acre; read-out: percent preemergent control
Method: as §1

[6] = tested on: rice; type: in vivo, Oryza sativa; details: Oryza sativa, pre-emergence, 336 h; 0.25 lb/acre; read-out: percent preemergent control
Method: as §1

[7] = tested on: sorghum; type: in vivo, Sorghum vulgare; details: Sorghum, pre-emergence, 336 h; 0.25 lb/acre; read-out: percent preemergent control
Method: as §1

[8] = tested on: corn; type: in vivo, Zea mays; details: Zea mays, pre-emergence, 336 h; 0.25 lb/acre; read-out: percent preemergent control
Method: as §1

[9] = tested on: velvetleaf; type: in vivo, Abutilon theophrasti; details: Abutilon theophrasti, pre-emergence, 336 h; 0.25 lb/acre; read-out: percent preemergent control
Method: as §1

[10] = tested on: wheat; type: in vivo, Triticum aestivum; details: Triticum aestivum, pre-emergence, 336 h; 0.25 lb/acre; read-out: percent preemergent control
Method: as §1

[11] = tested on: yellow nutsedge; type: in vivo, Cyperus esculentus; details: Cyperus, pre-emergence, 336 h; 0.25 lb/acre; read-out: percent preemergent control
Method: as §1

[12] = tested on: johnson grass; type: in vivo, Sorghum halepense; details: Sorghum halepense, pre-emergence, 336 h; 0.25 lb/acre; read-out: percent preemergent control
Method: as §1

[13] = tested on: cotton; type: in vivo, Gossypium spp.; details: Gossypium hirsutum, pre-emergence, 336 h; 0.25 lb/acre; read-out: percent preemergent control
Method: as §1

[14] = tested on: barnyardgrass; type: in vivo, Echinochloa crusgalli; details: Echinochloa crus-galli, pre-emergence, 336 h; 0.25 lb/acre; read-out: percent preemergent control
Method: as §1

[15] = tested on: rape; type: in vivo, Brassica napus; details: Brassica napus, pre-emergence, 336 h; 0.25 lb/acre; read-out: percent preemergent control
Method: as §1

| SMILES | pest or weed control at 280.212 g/ha [1] [%] | pest or weed control at 280.212 g/ha [2] [%] | plant injury at 280.212 g/ha [3] [%] | pest or weed control at 280.212 g/ha [4] [%] | plant injury at 280.212 g/ha [5] [%] | plant injury at 280.212 g/ha [6] [%] | plant injury at 280.212 g/ha [7] [%] | plant injury at 280.212 g/ha [8] [%] | pest or weed control at 280.212 g/ha [9] [%] | plant injury at 280.212 g/ha [10] [%] | pest or weed control at 280.212 g/ha [11] [%] | pest or weed control at 280.212 g/ha [12] [%] | plant injury at 280.212 g/ha [13] [%] | pest or weed control at 280.212 g/ha [14] [%] | plant injury at 280.212 g/ha [15] [%] |
| --- | --- | --- | --- | --- | --- | --- | --- | --- | --- | --- | --- | --- | --- | --- | --- |
| Cc1cn2nc(S(=O)(=O)Nc3c(Cl)cccc3Cl)nc2nc1N(C)C [Compound 237] | 20 | 30 | 40 | 10 | 50 | 20 | 20 | 20 | 0 | 100 | 30 | 10 | 50 | 10 | – |
| COc1nc2nc(S(=O)(=O)Nc3c(F)ccc(C)c3F)nn2cc1C [Compound 219] | 100 | 100 | 100 | 100 | 100 | 50 | 100 | 100 | 100 | 100 | 100 | 10 | 100 | 100 | 100 |
| COc1nc2nc(S(=O)(=O)Nc3c(C)cccc3Cl)nn2cc1C [Compound 220] | 70 | 100 | 90 | 100 | 100 | 50 | 100 | 100 | 100 | 100 | 100 | 100 | 100 | 90 | 100 |
| Cc1cc(C(F)(F)F)n2nc(S(=O)(=O)Nc3c(Cl)cccc3Cl)nc2n1 [Compound 227] | 70 | 90 | 0 | 100 | 100 | 50 | 100 | 40 | 30 | 90 | 100 | 70 | 60 | 50 | 100 |
| COc1nc2nc(S(=O)(=O)Nc3c([N+](=O)[O-])ccc(C)c3C)nn2cc1C [Compound 222] | 90 | 30 | 100 | 100 | 100 | 90 | 50 | 40 | 100 | 0 | 50 | 100 | 100 | 0 | 100 |
| C=C(C)C(=O)N(c1c(F)cccc1F)S(=O)(=O)c1nc2nc(C)ccn2n1 [Compound 286] | 100 | 100 | 30 | 100 | 100 | 100 | 100 | 50 | 100 | 70 | 100 | 100 | 100 | 100 | 100 |
| Cc1cc(C(F)(F)F)n2nc(S(=O)(=O)Nc3c(F)cccc3F)nc2n1 [Compound 228] | 70 | 50 | 20 | 100 | 100 | – | 100 | 50 | 90 | 50 | 50 | 90 | 90 | 90 | 80 |
| Cc1ccc(F)c(NS(=O)(=O)c2nc3nccc(C)n3n2)c1F [Compound 190] | 50 | 70 | 90 | 90 | 100 | 20 | 95 | 10 | 50 | 20 | 100 | 30 | 90 | 30 | – |
| O=S(=O)(Nc1c(Cl)cccc1Cl)c1nc2ncccn2n1 [Compound 137] | 70 | 20 | 0 | 10 | 100 | 50 | 30 | 0 | 80 | 30 | 100 | 20 | 80 | 20 | – |
| CSc1nc2nc(S(=O)(=O)Nc3c(Cl)cccc3Cl)nn2cc1C [Compound 235] | 90 | 20 | 0 | 50 | 50 | 10 | 50 | 50 | 20 | 50 | 0 | 0 | 50 | – | – |
| COc1cccc(C(F)(F)F)c1NS(=O)(=O)c1nc2nccc(C)n2n1 [Compound 191] | 100 | 100 | 100 | 100 | 100 | – | 100 | 95 | 100 | 100 | 100 | 100 | 100 | 100 | 100 |
| COc1ccc(F)c(NS(=O)(=O)c2nc3nc(C)ccn3n2)c1F [Compound 172] | 90 | 100 | 90 | 100 | 100 | 100 | 100 | 80 | 100 | 90 | 100 | 90 | 100 | 100 | – |

From patent publication US4740233A, “Substituted 1,2,4-triazolo[1,5-a]-pyrimidine-2-sulfonamides and compositions and methods of controlling undesired vegetation and suppressing the nitrification of ammonium nitrogen in soil” (The Dow Chemical Company, priority 1986, dated 1988)
